target: His-tagged recombinant human Gal-3 (hGal-3) (Homo sapiens, UniProt P17931); assay: Gal-3 HTRF assay (His-tagged hGal-3 / B-ASF); type: binding; details: hGal-3 15 nM, B-ASF 15 nM, room temperature, three replicates
Method: • ASSAY BUFFER Composition: 25 mM HEPES, 100 mM NaCl, 0.005% Tween 20, 0.05% BSA prepared in sterile water (all reagents from Sigma) Controls: • Positive Control: 100% DMSO (1 μl)+His-tagged hGal-3 (20 μL)+B-ASF (20 μl)+Anti-His Terbium Antibody (5 μl)+Strep d2 Antibody (5 μl). • Negative Control: […] (1 μl)+His-tagged hGal-3 (20 μL)+Anti His Terbium Antibody (5 μl)+Strep d2 Aantibody (5 μl). Stocks Preparation:
PROTOCOL: The Gal-3 assays were performed in 384 white Opti plates in three replicates at room temperature with gentle shaking at 250-300 rpm From the original stocks, […] working stock concentrations of His-tagged recombinant human Gal-3 (hGal-3) and that of B-ASF were prepared. From the working stock, 20 μl of hGal-3 (15 nM) and 20 μl B-ASF (15 nM) were added to the plates. In Negative Control, only hGal-3 was added. A concentration range of 50× working stocks were prepared for the compounds in […]. Aliquots of 1 uL of the compounds were added to the wells and pre-incubated with 20 μl hGal-3 per well for 30 minutes Then 20 μl B-ASF were added and incubated for another 1 hour. To detect the signal, 5 μL (final conc. of 1.0 nM) terbium labelled Anti-His antibody was added and incubated for 30 min followed by adding 5 μL (final conc. of 20 nM) Streptavidin d2 and incubation for another 1 hour. The assay signal was detected using HTRF screen protocol (Excitation wavelength=340 nm, emission wavelength=615 nm/665 nm) on Envision 2104 Multilabel Reader. Data analysed using Toolset and Curve Master. Results are reported in the experimental section (IC50 in μM).

His-tagged recombinant human Gal-3 (hGal-3), sequence (P17931 whole entry): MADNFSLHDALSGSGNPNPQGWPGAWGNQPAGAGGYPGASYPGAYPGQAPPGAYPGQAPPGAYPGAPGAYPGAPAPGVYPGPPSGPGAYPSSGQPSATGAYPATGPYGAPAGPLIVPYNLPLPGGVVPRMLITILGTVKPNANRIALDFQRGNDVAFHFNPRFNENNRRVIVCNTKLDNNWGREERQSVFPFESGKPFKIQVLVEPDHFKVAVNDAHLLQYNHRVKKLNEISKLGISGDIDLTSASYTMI

Row | SMILES | IC50 [nM]
1 | Cc1nc([C@H]2O[C@@H](CO)[C@@H](O)[C@@H](n3cc(-c4cc(F)c(Cl)c(F)c4)nn3)[C@@H]2OCC(=O)NCCCCCNC(=O)CO[C@@H]2[C@@H](n3cc(-c4cc(F)c(Cl)c(F)c4)nn3)[C@@H](O)[C@@H](CO)O[C@H]2c2nc(C)nn2-c2cc(Cl)ccc2C(F)(F)F)n(-c2cc(Cl)ccc2C(F)(F)F)n1 [Example 8] | 1
2 | Cc1nc([C@H]2O[C@@H](CO)[C@@H](O)[C@@H](n3cc(-c4cc(F)c(Cl)c(F)c4)nn3)[C@@H]2OCC(=O)N2CCN(C(=O)CO[C@@H]3[C@@H](n4cc(-c5cc(F)c(Cl)c(F)c5)nn4)[C@@H](O)[C@@H](CO)O[C@H]3c3nc(C)nn3-c3cc(Cl)ccc3Cl)CC2)n(-c2cc(Cl)ccc2Cl)n1 [Example 22] | 4
3 | Cc1nc([C@H]2O[C@@H](CO)[C@@H](O)[C@@H](n3cc(-c4cc(F)c(Cl)c(F)c4)nn3)[C@@H]2OC(=O)NCCCNC(=O)O[C@@H]2[C@@H](n3cc(-c4cc(F)c(Cl)c(F)c4)nn3)[C@@H](O)[C@@H](CO)O[C@H]2c2nc(C)nn2-c2cc(Cl)ccc2Cl)n(-c2cc(Cl)ccc2Cl)n1 [Example 19, (2R,3S,4R,5S,6S)-4-(4-(4-chloro-3,5-difluorophenyl)-1H-1,2,3-triazol-1-yl)-2-(1-(2,5-dichlorophenyl)-3-methyl-1H-1,2,4-triazol-5-yl)-5-hydroxy-6-(hydroxymethyl)tetrahydro-2H-pyran-3-yl ((2S,3R,4S,5R,6R)-4-(4-(4-chloro-3,5-difluorophenyl)-1H-1,2,3-triazol-1-yl)-2-(1-(2,5-dichlorophenyl)-3-methyl-1H-1,2,4-triazol-5-yl)-5-hydroxy-6-(hydroxymethyl)tetrahydro-2H-pyran-3-yl) propane-1,3-diyldicarbamate] | 110
4 | Cc1nc([C@H]2O[C@@H](CO)[C@@H](O)[C@@H](n3cc(-c4cc(F)c(Cl)c(F)c4)nn3)[C@@H]2OCC(=O)NCCCCNC(=O)CO[C@@H]2[C@@H](n3cc(-c4cc(F)c(Cl)c(F)c4)nn3)[C@@H](O)[C@@H](CO)O[C@H]2c2nc(C)nn2-c2cc(Cl)ccc2C(F)(F)F)n(-c2cc(Cl)ccc2C(F)(F)F)n1 [Example 7] | 1
5 | Cc1nc([C@H]2O[C@@H](CO)[C@@H](O)[C@@H](n3cc(-c4cc(F)c(Cl)c(F)c4)nn3)[C@@H]2OCC(=O)N(C)CCN(C)C(=O)CO[C@@H]2[C@@H](n3cc(-c4cc(F)c(Cl)c(F)c4)nn3)[C@@H](O)[C@@H](CO)O[C@H]2c2nc(C)nn2-c2cc(Cl)ccc2Cl)n(-c2cc(Cl)ccc2Cl)n1 [Example 21] | 2
6 | Cc1nc([C@H]2O[C@@H](CO)[C@@H](O)[C@@H](n3cc(-c4cc(F)c(Cl)c(F)c4)nn3)[C@@H]2OCC(=O)NCCCCCCCNC(=O)CO[C@@H]2[C@@H](n3cc(-c4cc(F)c(Cl)c(F)c4)nn3)[C@@H](O)[C@@H](CO)O[C@H]2c2nc(C)nn2-c2cc(Cl)ccc2Cl)n(-c2cc(Cl)ccc2Cl)n1 [Example 10] | 10
7 | Cc1nc([C@H]2O[C@@H](CO)[C@@H](O)[C@@H](n3cc(-c4cc(F)c(Cl)c(F)c4)nn3)[C@@H]2OCC(=O)NCCCNC(=O)CO[C@@H]2[C@@H](n3cc(-c4cc(F)c(Cl)c(F)c4)nn3)[C@@H](O)[C@@H](CO)O[C@H]2c2nc(C)nn2-c2cc(Cl)ccc2C(F)(F)F)n(-c2cc(Cl)ccc2C(F)(F)F)n1 [Example 6] | 1
8 | Cc1nc([C@H]2O[C@@H](CO)[C@@H](O)[C@@H](n3cc(-c4ccc(Cl)c(F)c4)nn3)[C@@H]2OCCCCCCCCCCO[C@@H]2[C@@H](n3cc(-c4ccc(Cl)c(F)c4)nn3)[C@@H](O)[C@@H](CO)O[C@H]2c2nc(C)nn2-c2cc(Cl)ccc2Cl)n(-c2cc(Cl)ccc2Cl)n1 [Example 16, (2R,3R,4S,5R,6S)-4-(4-(4-chloro-3-fluorophenyl)-1H-1,2,3-triazol-1-yl)-5-((10-(((2R,3S,4R,5S,6S)-4-(4-(4-chloro-3-fluorophenyl)-1H-1,2,3-triazol-1-yl)-2-(1-(2,5-dichlorophenyl)-3-methyl-1H-1,2,4-triazol-5-yl)-5-hydroxy-6-(hydroxymethyl)tetrahydro-2H-pyran-3-yl)oxy)decyl)oxy)-6-(1-(2,5-dichlorophenyl)-3-methyl-1H-1,2,4-triazol-5-yl)-2-(hydroxymethyl)tetrahydro-2H-pyran-3-ol] | 10000
9 | Cc1nc([C@H]2O[C@@H](CO)[C@@H](O)[C@@H](n3cc(-c4cc(F)c(Cl)c(F)c4)nn3)[C@@H]2OCC(=O)NCCCCCNC(=O)CO[C@@H]2[C@@H](n3cc(-c4cc(F)c(Cl)c(F)c4)nn3)[C@@H](O)[C@@H](CO)O[C@H]2c2nc(C)nn2-c2cc(Cl)ccc2Cl)n(-c2cc(Cl)ccc2Cl)n1 [Example 11] | 1
10 | Cc1nc([C@H]2O[C@@H](CO)[C@@H](O)[C@@H](n3cc(-c4ccc(Cl)c(F)c4)nn3)[C@@H]2OCC(=O)NCCCCCNC(=O)CO[C@@H]2[C@@H](n3cc(-c4ccc(Cl)c(F)c4)nn3)[C@@H](O)[C@@H](CO)O[C@H]2c2nc(C)nn2-c2cc(Cl)ccc2Cl)n(-c2cc(Cl)ccc2Cl)n1 [Example 5] | 10
11 | Cc1nc(C2OC(CO)C(O)C(n3cc(-c4cc(F)c(F)c(F)c4)nn3)C2OC(=O)NCCCCNC(=O)OC2C(c3nc(C)nn3-c3cc(Cl)ccc3Cl)OC(CO)C(O)C2n2cc(-c3cc(F)c(F)c(F)c3)nn2)n(-c2cc(Cl)ccc2Cl)n1 [Example 18, (2R,3S,4R,5S,6S)-2-(1-(2,5-dichlorophenyl)-3-methyl-11H-1,2,4-triazol-5-yl)-5-hydroxy-6-(hydroxymethyl)-4-(4-(3,4,5-trifluorophenyl)-1H-1,2,3-triazol-1-yl)tetrahydro-2H-pyran-3-yl ((2S,3R,4S,5R,6R)-2-(1-(2,5-dichlorophenyl)-3-methyl-1H-1,2,4-triazol-5-yl)-5-hydroxy-6-(hydroxymethyl)-4-(4-(3,4,5-trifluorophenyl)-1H-1,2,3-triazol-1-yl)tetrahydro-2H-pyran-3-yl) butane-1,4-diyldicarbamate] | 19
12 | Cc1nc([C@H]2O[C@@H](CO)[C@@H](O)[C@@H](n3cc(-c4cc(F)c(Cl)c(F)c4)nn3)[C@@H]2OCC(=O)N2CCCN(C(=O)CO[C@@H]3[C@@H](n4cc(-c5cc(F)c(Cl)c(F)c5)nn4)[C@@H](O)[C@@H](CO)O[C@H]3c3nc(C)nn3-c3cc(Cl)ccc3Cl)CC2)n(-c2cc(Cl)ccc2Cl)n1 [Example 23] | 4
13 | Cc1nc([C@H]2O[C@@H](CO)[C@@H](O)[C@@H](n3cc(-c4cc(F)c(Cl)c(F)c4)nn3)[C@@H]2OCC(=O)N(C)CCCCN(C)C(=O)CO[C@@H]2[C@@H](n3cc(-c4cc(F)c(Cl)c(F)c4)nn3)[C@@H](O)[C@@H](CO)O[C@H]2c2nc(C)nn2-c2cc(Cl)ccc2Cl)n(-c2cc(Cl)ccc2Cl)n1 [Example 15] | 5
14 | Cc1nc(C2OC(CO)C(O)C(n3cc(-c4cc(F)c(F)c(F)c4)nn3)C2OCC(=O)NCCCCCNC(=O)COC2C(c3nc(C)nn3-c3cc(Cl)ccc3Cl)OC(CO)C(O)C2n2cc(-c3cc(F)c(F)c(F)c3)nn2)n(-c2cc(Cl)ccc2Cl)n1 (stereo not drawn) [Example 2] | 1
15 | Cc1nc([C@H]2O[C@@H](CO)[C@@H](O)[C@@H](n3cc(-c4cc(F)c(Cl)c(F)c4)nn3)[C@@H]2OCC(=O)NCCCCCCNC(=O)CO[C@@H]2[C@@H](n3cc(-c4cc(F)c(Cl)c(F)c4)nn3)[C@@H](O)[C@@H](CO)O[C@H]2c2nc(C)nn2-c2cc(Cl)ccc2Cl)n(-c2cc(Cl)ccc2Cl)n1 [Example 9] | 6
16 | Cc1nc([C@H]2O[C@@H](CO)[C@@H](O)[C@@H](n3cc(-c4cc(F)c(Cl)c(F)c4)nn3)[C@@H]2OCCCCCCCCO[C@@H]2[C@@H](n3cc(-c4cc(F)c(Cl)c(F)c4)nn3)[C@@H](O)[C@@H](CO)O[C@H]2c2nc(C)nn2-c2cc(Cl)ccc2Cl)n(-c2cc(Cl)ccc2Cl)n1 [Example 17, (2R,3R,4S,5R,6S)-4-(4-(4-chloro-3,5-difluorophenyl)-1H-1,2,3-triazol-1-yl)-5-((8-(((2R,3S,4R,5S,6S)-4-(4-(4-chloro-3,5-difluorophenyl)-1H-1,2,3-triazol-1-yl)-2-(1-(2,5-dichlorophenyl)-3-methyl-1H-1,2,4-triazol-5-yl)-5-hydroxy-6-(hydroxymethyl)tetrahydro-2H-pyran-3-yl)oxy)octyl)oxy)-6-(1-(2,5-dichlorophenyl)-3-methyl-1H-1,2,4-triazol-5-yl)-2-(hydroxymethyl)tetrahydro-2H-pyran-3-ol] | 2000
17 | Cc1nc([C@H]2O[C@@H](CO)[C@@H](O)[C@@H](n3cc(-c4cc(F)c(Cl)c(F)c4)nn3)[C@@H]2OCC(=O)NCCCCNC(=O)CO[C@@H]2[C@@H](n3cc(-c4cc(F)c(Cl)c(F)c4)nn3)[C@@H](O)[C@@H](CO)O[C@H]2c2nc(C)nn2-c2cc(Cl)ccc2Cl)n(-c2cc(Cl)ccc2Cl)n1 [Example 12] | 1
18 | Cc1nc([C@H]2O[C@@H](CO)[C@@H](O)[C@@H](n3cc(-c4cc(F)c(Cl)c(F)c4)nn3)[C@@H]2OCC(=O)NCCNC(=O)CO[C@@H]2[C@@H](n3cc(-c4cc(F)c(Cl)c(F)c4)nn3)[C@@H](O)[C@@H](CO)O[C@H]2c2nc(C)nn2-c2cc(Cl)ccc2Cl)n(-c2cc(Cl)ccc2Cl)n1 [Example 13] | 1
